In paper PMC12154284, “FYCO1 Peptide Analogs: Design and Characterization of Autophagy Inhibitors as Co-Adjuvants in Taxane Chemotherapy of Prostate Cancer” (International Journal of Molecular Sciences, 2025):
pKd: −log10 of the molar value. “Also recorded” adds a separate entry of the source. Values belong to the compound of their own block, whether it stands above or below them.

Columns and labels:
PC cells = settings: with Doc, cited from earlier work
From the text: (§1) Many studies have analyzed the nature of autophagy activated by Doc in PC and the impact of autophagy inhibitors on cell proliferation. The results obtained using 3-Methyladenine (3-MA) in association with Doc were contradictory. […] A more convincing result was obtained using the autophagy inhibitor CQ which enhanced the action ...

PC-3 cells [1] = settings: with Doc; ref [45]; cited from earlier work
From the text: as §1

[2] = biological target: human recombinant His-tagged LC3B (Homo sapiens, UniProt Q9GZQ8); assay: MST binding to human recombinant His-tagged LC3B; settings: Table S1
[3] = Peptide aggregation in MST capillaries; assay type: physicochemical
Method: This technique enables the determination of the dissociation constant (Kd) across a concentration range spanning from 1 picomolar (pM) to the millimolar (mM) level. The experimental conditions mirrored those in our previously published work. […] A constant concentration of red-labelled LC3B (10 nM) was incubated with sixteen 1:1 serial dilutions of peptides (concentration details are consultable in the Supplementary Materials, Table S1). PBS-T (phosphate-buffered saline + 0.05% Tween™ 20), from NanoTemper Technologies, with 2.5% dimethyl sulfoxide (DMSO) (Product No. D8418; Sigma-Aldrich, Saint Louis, MO, USA) was used as buffer. After 15 min of incubation at room temperature, samples were loaded into standard capillaries (Product No. MO-K022; NanoTemper Technologies) and analyzed at 25 °C with 20% excitation power and medium MST power (40%) using the “Binding Affinity” mode available in the MO.Control v1.6 software (NanoTemper Technologies GmbH, München, Germany). Prior to Kd determination, peptide auto-fluorescence was assessed. […] The “Capillary Scan” graphs, showing the fluorescence homogeneity in the capillaries of all biophysically tested peptides, are provided in the Supplementary Materials, Figure S5.

[4] = system: cleaved caspase-3 in PC-3 cells; assay: Western blot of cleaved caspase-3 in PC-3 cells; assay type: cell-based, Human; settings: AM10, Doc (25 nM) or both, 48 h
Method: (§2) PC-3 cells were plated at 2 × 10^5 cells/dish in 6 cm dishes and treated with different compounds. At the end of the treatments the cells were lysed in RIPA buffer. Protein extracts (15–35 μg) were resuspended in presence of reducing Sample buffer (Bio-Rad Laboratories, Segrate, Milano, Italy), heated at 95 °C for 5 min and separated by SDS-PAGE WB. Proteins were transferred onto nitrocellulose or PVDF membranes. After blocking with nonfat dried milk, membranes were incubated with anti-ATG5 (1:1000) (#12994) Cell Signaling Technology Inc. (Boston, MA, USA), anti-LC3 (1:1000) (L8918) (Sigma-Aldrich), anti-SQSTM1/p62 (1:2000) (PA5-20839) (Thermo Fisher Scientific, Waltham, MA, USA), anti-cleaved-caspase-3 (1:500) (#9664) Cell Signaling Technology Inc. primary antibodies overnight at 4 °C. Horseradish peroxidase (HRP) conjugated secondary anti-rabbit or anti-mouse antibodies were used for 1 h at room temperature and the membranes were processed using chemiluminescence kit Cyanagen Ultra (Cyanagen, Bologna, Italy). In each WB experiment alpha-tubulin expression (T6199) (Sigma-Aldrich, St. Louis, MO, USA) was evaluated as a protein control. Relative optical density of the bands was assessed by ImageJ software (version 1.54g). Uncropped WB images are available in the Supporting Information.

A549 cells = assay: MTS cell viability, A549; assay type: cell-based, human; settings: 72 h, 0.0025 to 5 μM, n = 4
Method: (§3) The study was conducted on several cancer cells. Human CRPC cell lines (PC-3 and DU145) were purchased from the American Type Culture Collection (ATCC, Manassas, VA, USA) and cultured at 37 °C and 5% CO2 in RPMI 1640 (EuroClone, Milano, Italy) supplemented, respectively, with 7.5% (PC3) and 5% (DU145) FBS (Gibco, ThermoFisher Scientific, Waltham, MA, USA), 1% L-glutamine, and antibiotics (100 IU/mL penicillin G). […]
(§4) For viability studies, MTS (Cell Titer 96 Aqueous One Solution Cell Proliferation Assay) (Promega, Nacka, Sweden) and 3-(4,5-dimethylthiazole-2-yl)-2,5-diphenyltetrazolium bromide (MTT) (Sigma-Aldrich, St. Louis, MO, USA) assays were conducted. […] The absorbance (λ = 550 nm) was measured by an EnSpire Multimode Plate reader (Perkin Elmer, Milano, Italy). The absorbance value of untreated cells was set at 100% (control), and the viability of treated cells was expressed as a percentage of the control. […] After 72 h, cell viability was assessed using an MTS assay according to the manufacturer’s protocol using a 96-well-plate spectrophotometer (Varioskan Flash Multimode Reader; ThermoFisher Scientific, Waltham, MA, USA) set at λ = 490 nm. The absorbance value of untreated cells was set at 100% (control), and the viability of treated cells was expressed as a percentage of the control. […]

MCF-7 cells = assay: MTS cell viability, MCF-7; assay type: cell-based; settings: 72 h, 0.0025 to 5 μM, n = 4
Method: as §3, §4

p62 in PC-3 cells = assay: Western blot of p62 (SQSTM1) in PC-3 cells; assay type: cell-based, Human; settings: 72 h and 96 h
Method: as §2

autophagy in PC-3 cells = assay: Autophagosome formation and autophagic flux in PC-3 cells (LC3-I, LC3-II, p62); assay type: cell-based, Human; settings: as evidenced by LC3-I
Method: as §2

A375 cells = assay: MTS cell viability, A375; assay type: cell-based; settings: 72 h, 0.0025 to 5 μM, n = 4
Method: as §3, §4

[5] = system: LC3-I and LC3-II in PC-3 cells; assay: Western blot of LC3-I and LC3-II in PC-3 cells; assay type: cell-based, Human; settings: for LC3-I / LC3-II expression, Doc/AM10 experiment: AM10, Doc (25 nM) or both
Method: as §2

DU145 cells = assay: MTT cell viability, DU145 (ATG5-deficient); assay type: cell-based, Human; settings: 72 h, dose printed 5 mM, n = 6
Method: as §3, §4

PC-3 cells [6] = assay: MTT cell viability, PC-3; assay type: cell-based, Human
Method: The study was conducted on several cancer cells. Human CRPC cell lines (PC-3 and DU145) were purchased from the American Type Culture Collection (ATCC, Manassas, VA, USA) and cultured at 37 °C and 5% CO2 in RPMI 1640 (EuroClone, Milano, Italy) supplemented, respectively, with 7.5% (PC3) and 5% (DU145) FBS (Gibco, ThermoFisher Scientific, Waltham, MA, USA), 1% L-glutamine, and antibiotics (100 IU/mL penicillin G). Luminal A MCF-7 breast cancer cells (ATCC, Manassas, VA, USA) were cultured in Dulbecco’s Modified Eagle Medium/Nutrient Mixture F-12 (DMEM-F12, Gibco Laboratories, Waltham, MA, USA) supplemented with 10% fetal bovine serum (FBS, Gibco Laboratories, Waltham, MA, USA), 1% penicillin/streptomycin (Gibco Laboratories), and 1% L-glutamine (Gibco Laboratories). A549 human lung cancer cell line (ATCC, Manassas, VA, USA) were cultured in Dulbecco’s modified eagle medium (DMEM, Lonza, Switzerland) supplemented with 10% FBS (Gibco Laboratories, Waltham, MA, USA), 1% of 100 u/mL penicillin/streptomycin (Gibco Laboratories), and 1% L-glutamine (Gibco Laboratories). […]
as §4

autophagic response = settings: CRPC therapy; ref [39]; cited from earlier work
From the text: An important problem of tumor is represented by therapy resistance. In fact, in prostate cancer, numerous studies have investigated the implications of autophagy in resistance to hormonal therapies or chemotherapeutic agents. […] Docetaxel (Doc), a chemotherapeutic drug which inhibits microtubule depolymerization, represents the first-line treatment for metastatic CRPC. The treatment is effective in the early stages, but over time its efficacy is drastic ...

[7] = system: breast and colon cancer cells; settings: ref [32]; cited from earlier work
From the text: The growing applications of bromine and iodine substituents in anticancer treatment lend ...

LC3B (Homo sapiens) = LC3B (Homo sapiens) (UniProt Q9GZQ8); settings: cited from earlier work

Compound: Cn1cnc(N)c2ncnc1-2 [3-MA, 3-Methyladenine]
- effect on chemotherapy efficacy (PC cells; ref [43],[47],[48]): decreased the chemotherapy efficacy
- effect on cytotoxic action of Doc (PC cells; ref [46] Hu and collaborators): enhanced the cytotoxic action of Doc
- effect on cytotoxicity of Doc in PC-3 cells (PC-3 cells [1]): does not modify the cytotoxicity of Doc in PC-3 cells

- Response Amplitude (RA) [2]: 7.8
Compound: CC[C@H](C)[C@H](NC(=O)[C@H](CC(=O)O)NC(=O)[C@H](Cc1ccc(I)cc1)NC(=O)[C@@H](NC(=O)[C@H](C)NC(=O)[C@@H](N)CC(=O)O)C(C)C)C(=O)N[C@H](C(=O)N[C@H](C(=O)N[C@@H](CC(=O)O)C(=O)N[C@@H](CCC(=O)O)C(=O)N[C@@H](CCC(=O)O)C(=O)N[C@@H](CC(C)C)C(=O)O)[C@@H](C)O)[C@@H](C)CC [AM2]

- concentration at which aggregation is displayed ([3]; MST buffer PBS-T + 2.5% DMSO, 25 °C): ≥ 31.25 µM
- Response Amplitude (RA) [2]: 3.7
Compound: CC[C@H](C)[C@H](NC(=O)[C@H](CC(=O)O)NC(=O)[C@H](Cc1ccccc1)NC(=O)[C@@H](NC(=O)[C@H](C)NC(=O)[C@@H](N)CC(=O)O)C(C)C)C(=O)N[C@H](C(=O)N[C@H](C(=O)N[C@H]1CSCc2ccc(cc2)CSC[C@@H](C(=O)O)NC(=O)[C@H](CCC(=O)O)NC(=O)[C@H](CCC(=O)O)NC1=O)[C@@H](C)O)[C@@H](C)CC [AM7]
- aggregation at highest concentrations, in words ([3]; 125, 62.5 and 31.25 µM, MST capillary scan, PBS-T + 2.5% DMSO): the three highest concentration points (125, 62.5, and 31.25 µM) were discarded due to aggregation; also recorded: the three highest concentrations (125, 62.5, and 31.25 µM) were excluded from analysis due to aggregation phenomena

- Response Amplitude (RA) [2]: 2.8
Compound: CC[C@H](C)[C@H](NC(=O)[C@H](CC(=O)O)NC(=O)[C@H](Cc1ccc(I)cc1)NC(=O)[C@@H](NC(=O)[C@H](C)NC(=O)[C@@H](N)CC(=O)O)C(C)C)C(=O)N[C@@H](CCSC)C(=O)N[C@H](C(=O)N[C@H]1CSSC[C@@H](C(=O)O)NC(=O)[C@H](CCC(=O)O)NC(=O)[C@H](CCC(=O)O)NC1=O)[C@@H](C)O [AM10]
- cleaved caspase-3 / apoptosis [4]: does not induce caspase-3 activation
- A549 cell viability (A549 cells): concentration-dependent reduction in cell viability
- MCF-7 cell viability (MCF-7 cells): concentration-dependent reduction in cell viability
- p62 expression (p62 in PC-3 cells): the expression of p62 increases significantly
- autophagosome formation and autophagic flux (Conclusions) (autophagy in PC-3 cells): inhibited autophagosome formation and autophagic flux
- A375 cell viability (A375 cells): concentration-dependent reduction in cell viability
- LC3-I and LC3-II expression, 48 h ([5]; 5 µM, 48 h): significantly reduced the level of LC3-I and LC3-II
- LC3-I and LC3-II expression, 72 h ([5]; 72 h): retains the ability to inhibit both LC3-I and LC3-II
- LC3-I / LC3-II expression, Doc/AM10 experiment ([5]; 48 h): reduces the expression of both LC3-I and LC3-II
- DU145 cell viability (DU145 cells): no effect on cell viability
- PC-3 cell viability (PC-3 cells [6]; MTT, 72 h, 0.0025-5 μM (method), n = 6): all peptides reduce cell viability in a significant dose-dependent manner starting from the 0.025 mM dose up to the 5 mM dose
- PC-3 cell viability (Conclusions) (PC-3 cells [6]; summary statement): diminished cell viability

Compound: C[C@]12CC[C@H](O)CC1=CC[C@@H]1[C@@H]2CC[C@]2(C)C(c3cccnc3)=CC[C@@H]12 [Abiraterone]
- autophagic response (autophagic response): activate an autophagic response that reduces their effectiveness

Compound: CCN(CC)CCCC(C)Nc1ccnc2cc(Cl)ccc12 (stereo not shown) [CQ, Chloroquine]
- effect on the action of Doc (PC cells; ref [49]): enhanced the action of Doc by reducing resistance to chemotherapy

Compound: CC(=O)O[C@@]12CO[C@@H]1C[C@H](O)[C@@]1(C)C(=O)[C@H](O)C3=C(C)[C@@H](OC(=O)[C@H](O)[C@@H](NC(=O)OC(C)(C)C)c4ccccc4)C[C@@](O)([C@@H](OC(=O)c4ccccc4)[C@H]21)C3(C)C [Doc, Docetaxel, reference compound]
- cleaved caspase-3 / apoptosis [4]: trigger apoptotic cell death by activating the executor caspase-3
- LC3-I / LC3-II expression, Doc/AM10 experiment ([5]; 48 h): significant increase in LC3-II expression
- PC-3 cell viability, Docetaxel (PC-3 cells [6]; MTT, 48 h, 1-100 nM): significant reduction in cell viability at concentrations of 10 nM, 25 nM, 50 nM, and 100 nM, with a dose-dependent effect

Compound: CNC(=O)c1ccc(N2C(=S)N(c3ccc(C#N)c(C(F)(F)F)c3)C(=O)C2(C)C)cc1F [Enzalutamide]
- autophagic response (autophagic response): activate an autophagic response that reduces their effectiveness

Compound: Cc1ccc(S(=O)(=O)[N-]Br)cc1.[Na+] [bromamine T]
- cytotoxic effects against breast and colon cancer cells [7]: strong cytotoxic effects against breast and colon cancer cells

Compound: FYCO1-LIR peptide
- pKd (LC3B (Homo sapiens)): 5.51
